The values below come from US9144557B2, “Hematopoietic growth factor mimetic small molecule compounds and their uses” (Ligand Pharmaceuticals Inc., priority 2009, dated 2015).

The subject of this experiment is UT7/EPO Cell line. Put plainly: Cell Proliferation Assay (UT7/EPO, ViaLight Plus). The format is cell-based, human. The conditions noted are these: proliferative effect; compounds at 10 uM; UT7/EPO cells starved of EPO overnight; 72 hours at 37° C.; ViaLight Plus kit. Here is the method: The primary testing for the examplfied compounds was performed in UT7/EPO Cell line. UT7/EPO is human leukemia cell line, obtained from Dr. Norio Komatsu (Blood, Vol 82 (2), pp 456-464, 1993). These cells express endogenous EPO receptor and are dependant upon EPO for growth and proliferation. Briefly, the cells were starved of EPO overnight and plated in 96 or 384 well plates. The compounds were added to the cells at 10 uM concentration. The plates were then incubated at 37° C. for 72 hours. The proliferative effect of the compounds was measured by a commercially available kit from Lonza (ViaLight Plus).

With `O=C(Nc1ccc2c(cnn2-c2ccc(NC(=O)c3cccs3)cc2)c1)c1ccc(N2CCCC(CO)C2)cc1` (racemic) [Compound 520, (±)-N-(4-(5-(4-(3-Hydroxymethyl)piperidin-1-yl)benzamido)-1H-indazol-1-yl)phenyl)thiophene-2-carboxamide], the “Activity (%)” value stood at 13%.

`O=C(Nc1ccc(C(=O)c2ccc(NC(=O)c3ccc[nH]3)cc2)cc1)c1ccc(N2CCCC(CO)C2)cc1` (racemic) [Compound 700, (±)-N-(4-(4-(4-(3-(Hydroxymethyl)piperidin-1-yl)benzamido)benzoyl)phenyl)-1H-pyrrole-2-carboxamide]: the “Activity (%)” value came out at 14%.

Consider `CN(C)c1ccc(C(=O)N/N=C/c2cccc(/C=N/NC(=O)c3ccc(N(C)C)cc3)c2)cc1` [Compound 103, (N′,N′″E,N′,N′″E)-N′,N′″-(1,3-phenylenebis(methanylylidene))bis(4-(dimethylamino)benzohydrazide)], for which the “Activity (%)” value was 16%.

`COc1ccc(/C=N/NC(=O)c2ccc(N(C)C)cc2)cc1/C=N/NC(=O)c1ccc(N(C)C)cc1` [Compound 106, (N′,N′″E,N′,N′″E)-N′,N′″-((4-methoxy-1,3-phenylene)bis(methanylylidene))bis(4-(dimethylamino)benzohydrazide)]: the “Activity (%)” value is listed as 14%.

Regarding `CN(C)c1ccc(C(=O)N/N=C/c2cc(/C=N/NC(=O)c3ccc(N(C)C)cc3)cc(OCc3ccccc3)c2)cc1` [Compound 107, (N′,N′″E,N′,N′″E)-N′,N′″-((5-(benzyloxy)-1,3-phenylene)bis(methanylylidene))bis(4-(dimethylamino)benzohydrazide)], the “Activity (%)” value is 17%.

On to `C=CCOc1cc(/C=N/NC(=O)c2ccc(N(C)C)cc2)cc(/C=N/NC(=O)c2ccc(N(C)C)cc2)c1` [Compound 113, (N′,N′″E,N′,N′″E)-N′,N′″-((5-(allyloxy)-1,3-phenylene)bis(methanylylidene))bis(4-(dimethylamino)benzohydrazide)], for which the “Activity (%)” value amounted to 17%.

With `O=C(N/N=C/c1cccc(/C=N/NC(=O)c2ccc(N(CC(F)(F)F)CC(F)(F)F)cc2)c1)c1ccc(N(CC(F)(F)F)CC(F)(F)F)cc1` [Compound 115, (N′,N′″E,N′,N′″E)-N′,N′″-(1,3-phenylenebis(methanylylidene))bis(4-(bis(2,2,2-trifluoroethyl)amino)benzohydrazide)], the “Activity (%)” value worked out at 22%.

Take `Cn1ccc2cc(C(=O)N/N=C/c3cccc(/C=N/NC(=O)c4ccc5c(ccn5C)c4)c3)ccc21` [Compound 125, (N′,N′″E,N′,N′″E)-N′,N′″-(1,3-phenylenebis(methanylylidene))bis(1-methyl-1H-indole-5-carbohydrazide)]: the “Activity (%)” value was found to be 15%.

`CN(C)c1ccc(C(=O)N/N=C/c2cc(/C=N/NC(=O)c3ccc(N(C)C)cc3)cc(COCc3ccccc3)c2)cc1` [Compound 128, (N′,N′″E,N′,N′″E)-N′,N′″-((5-((benzyloxy)methyl)-1,3-phenylene)bis(methanylylidene))bis(4-(dimethylamino)benzohydrazide)]: the “Activity (%)” value is 20%.

On to `CN(C)c1ccc(C(=O)N/N=C/c2cc(/C=N/NC(=O)c3ccc(N(C)C)cc3)cc(NCCO)c2)cc1` [Compound 135, (N′,N′″E,N′,N′″E)-N′,N′″-((5-((2-hydroxyethyl)amino)-1,3-phenylene)bis(methanylylidene))bis(4-(dimethylamino)benzohydrazide)], for which the “Activity (%)” value is given as 16%.

For the compound `COc1cccc(/C=N/NC(=O)c2ccc(C(=O)NCCC(=O)NCCO)cc2)c1` [Compound 141, (E)-N-(3-((2-hydroxyethyl)amino)-3-oxopropyl)-4-(2-(3-methoxybenzylidene)hydrazinecarbonyl)benzamide], the “Activity (%)” value worked out at 19%.

Turning to `COc1cc(/C=N/NC(=O)c2ccc(C(=O)NCCC(=O)NCCO)cc2)ccc1O` [Compound 146, (E)-4-(2-(4-hydroxy-3-methoxybenzylidene)hydrazinecarbonyl)-N-(3-((2-hydroxyethyl)amino)-3-oxopropyl)benzamide], the “Activity (%)” value is 19%.

As to `CN(C)c1cccc(/C=N/NC(=O)c2ccc(C(=O)NCCC(=O)NCCO)cc2)c1` [Compound 149, (E)-4-(2-(3-(dimethylamino)benzylidene)hydrazinecarbonyl)-N-(3-((2-hydroxyethyl)amino)-3-oxopropyl)benzamide], the “Activity (%)” value is listed as 22%.

For the compound `CN(C)c1cccc(/C=N/NC(=O)c2ccc(NCCCC(=O)NCCO)cc2)c1` [Compound 151, (E)-4-((4-(2-(3-(dimethylamino)benzylidene)hydrazinecarbonyl)phenyl)amino)-N-(2-hydroxyethyl)butanamide], the “Activity (%)” value is on record as 20%.

For the compound `COc1cccc(/C=N/NC(=O)c2ccc3c(ccn3CCCC(=O)Nc3cccc(N(C)C)c3)c2)c1` [Compound 156, (E)-N-(3-(dimethylamino)phenyl)-4-(5-(2-(3-methoxybenzylidene)hydrazinecarbonyl)-1H-indol-1-yl)butanamide], the “Activity (%)” value is given as 21%.

`COCCNC(=O)CCCn1ccc2cc(C(=O)N/N=C/c3cccc(-n4cccn4)c3)ccc21` [Compound 160, (E)-4-(5-(2-(3-(1H-pyrazol-1-yl)benzylidene)hydrazinecarbonyl)-1H-indol-1-yl)-N-(2-methoxyethyl)butanamide]: the “Activity (%)” value is on record as 22%.

For the compound `COc1cccc(/C=N/NC(=O)c2ccc(C(=O)NCCC(=O)NCCCCO)cc2)c1` [Compound 165, (E)-N-(3-((4-hydroxybutyl)amino)-3-oxopropyl)-4-(2-(3-methoxybenzylidene)hydrazinecarbonyl)benzamide], the “Activity (%)” value is 19%.

In the case of `O=C(Nc1ccc2[nH]c(-c3ccccc3)nc2c1)c1ccc(-c2ccccc2)cc1` [Compound 172, N-(2-Phenyl-1H-benzo[d]imidazol-5-yl)-[1,1′-biphenyl]-4-carboxamide], the “Activity (%)” value stood at 12%.

Take `COc1ccc(C(=O)Nc2ccc3[nH]c(-c4ccc(N5CCCC5)cc4)nc3c2)cc1` [Compound 177, 4-Methoxy-N-(2-(4-(pyrrolidin-1-yl)phenyl)-1H-benzo[d]imidazol-5-yl)benzamide]: the “Activity (%)” value is recorded as 15%.

Turning to `CN(C)c1ccc(C(=O)Nc2ccc3[nH]c(-c4ccc5c(c4)OCCN5C)nc3c2)cc1` [Compound 181, 4-(Dimethylamino)-N-(2-(4-methyl-3,4-dihydro-2H-benzo[b][1,4]oxazin-7-yl)-1H-benzo[d]imidazol-5-yl)benzamide], the “Activity (%)” value is on record as 20%.

For the compound `CN(C)c1ccc(C(=O)Nc2ccc3[nH]c(-c4ccc5nonc5c4)nc3c2)cc1` [Compound 186, N-(2-(benzo[c][1,2,5]oxadiazol-5-yl)-1H-benzo[d]imidazol-5-yl)-4-(dimethylamino)benzamide], the “Activity (%)” value was determined as 15%.

On to `CN(C)c1ccc(NC(=O)c2ccc(-c3nc4cc(NC(=O)c5ccccc5)ccc4[nH]3)cc2)cc1` [Compound 191, 4-(5-benzamido-1H-benzo[d]imidazol-2-yl)-N-(4-(dimethylamino)phenyl)benzamide], for which the “Activity (%)” value is 18%.

Take `CN(C)c1ccc(NC(=O)c2ccc(-c3nc4cc(C(=O)Nc5ccc(N(C)C)cc5)ccc4[nH]3)cc2)cc1` [Compound 197, N-(4-(dimethylamino)phenyl)-2-(4-((4-(dimethylamino)phenyl)carbamoyl)phenyl)-1H-benzo[d]imidazole-5-carboxamide]: the “Activity (%)” value is listed as 20%.

Turning to `CN(C)c1ccc(C(=O)Nc2ccc3[nH]c(-c4ccc(-c5nn[nH]n5)cc4)nc3c2)cc1` [Compound 202, N-(2-(4-(2H-tetrazol-5-yl)phenyl)-1H-benzo[d]imidazol-5-yl)-4-(dimethylamino)benzamide], the “Activity (%)” value was found to be 17%.

On to `CN(C)c1ccc(C(=O)Nc2ccc3[nH]c(-c4ccc(N(C)C)cc4)nc3c2)cc1` [Compound 206, 4-(dimethylamino)-N-(2-(4-(dimethylamino)phenyl)-1H-benzo[d]imidazol-5-yl)benzamide], for which the “Activity (%)” value is given as 18%.

Take `COc1ccc(-c2nc3cc(NC(=O)c4cccs4)ccc3[nH]2)cc1` [Compound 210, N-(2-(4-methoxyphenyl)-1H-benzo[d]imidazol-5-yl)thiophene-2-carboxamide]: the “Activity (%)” value stood at 17%.

In the case of `O=C(Nc1ccccc1)c1ccc(-c2nc3cc(NC(=O)c4ccc(N5CCCCC5)cc4)ccc3[nH]2)cc1` [Compound 215, N-phenyl-4-(5-(4-(piperidin-1-yl)benzamido)-1H-benzo[d]imidazol-2-yl)benzamide], the “Activity (%)” value is given as 16%.

Turning to `CN(C)c1ccc(C(=O)Nc2ccc3[nH]c(-c4ccc(-c5ccc(N(C)C)cc5)cc4)nc3c2)cc1` [Compound 220, 4-(dimethylamino)-N-(2-(4′-(dimethylamino)-[1,1′-biphenyl]-4-yl)-1H-benzo[d]imidazol-5-yl)benzamide], the “Activity (%)” value was 19%.

On to `O=C(Nc1ccc2[nH]c(-c3ccc(N4CCCC4)cc3)nc2c1)c1ccc(N2CCCC2)cc1` [Compound 225, 4-(pyrrolidin-1-yl)-N-(2-(4-(pyrrolidin-1-yl)phenyl)-1H-benzo[d]imidazol-5-yl)benzamide], for which the “Activity (%)” value was determined as 20%.

With `NNC(=O)c1ccc(-c2nc3cc(NC(=O)c4ccc(N5CCCC5)cc4)ccc3[nH]2)cc1` [Compound 230, N-(2-(4-(hydrazinecarbonyl)phenyl)-1H-benzo[d]imidazol-5-yl)-4-(pyrrolidin-1-yl)benzamide], the “Activity (%)” value turned out to be 21%.

As for `CN(CCO)c1ccc(C(=O)Nc2ccc3[nH]c(-c4ccc(C(=O)NC5CC5)cc4)nc3c2)cc1` [Compound 235, N-cyclopropyl-4-(5-(4-((2-hydroxyethyl)(methyl)amino)benzamido)-1H-benzo[d]imidazol-2-yl)benzamide], the “Activity (%)” value is 15%.
